In publication PMC11934079, “Structural and Mechanistic Characterization of the Flavin-Dependent Monooxygenase and Oxidase Involved in Sorbicillinoid Biosynthesis” (ACS Chemical Biology, 2025):

How the values were obtained:
SorC [1] = target: T1, SorC (Penicillium rubens, UniProt B6HN76); experiment: enzyme kinetics; format: biochemical; conditions: coenzyme; hydroxylation of sorbicillin
T1 construct: monomer

SorC [2] = target: T1, SorC; experiment: X-ray crystal structure, […] Å; format: binding; conditions: flavin out conformation; without sorbicillin
SorD [3] = target: T2, SorD (Penicillium rubens, UniProt B6HNK6); experiment: X-ray crystal structure, […] Å; format: binding; conditions: covalent; attached to His78; without sorbicillin
T2 construct: C-terminal His6 tag, endogenous signal peptide (residues 5-22 partly seen in structure), secreted from Aspergillus niger; N-glycosylated; ~50 kDa theoretical, 61 kDa measured; monomer; FAD covalent at His78
T2 sequence (B6HNK6 whole entry, the tested form may be a part): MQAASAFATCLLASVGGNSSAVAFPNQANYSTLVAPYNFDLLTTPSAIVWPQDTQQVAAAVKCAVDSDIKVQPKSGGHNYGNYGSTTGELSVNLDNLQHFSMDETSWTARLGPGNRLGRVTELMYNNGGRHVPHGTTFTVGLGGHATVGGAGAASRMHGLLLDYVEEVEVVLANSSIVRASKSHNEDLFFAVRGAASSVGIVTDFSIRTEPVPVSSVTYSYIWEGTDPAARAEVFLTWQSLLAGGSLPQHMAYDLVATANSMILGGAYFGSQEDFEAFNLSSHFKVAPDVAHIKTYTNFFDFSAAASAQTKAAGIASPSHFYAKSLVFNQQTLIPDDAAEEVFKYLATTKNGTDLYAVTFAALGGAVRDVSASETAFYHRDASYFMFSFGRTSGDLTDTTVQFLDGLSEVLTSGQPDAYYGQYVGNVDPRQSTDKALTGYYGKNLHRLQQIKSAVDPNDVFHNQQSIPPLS

SorC [4] = target: T1, SorC; experiment: microscale thermophoresis; format: binding
SorD [5] = target: T2, SorD; experiment: microscale thermophoresis; format: binding
SorC [6] = target: T3, SorC (Penicillium rubens, UniProt B6HN76, R201A); experiment: microscale thermophoresis; format: binding
T3 construct: monomer
T3 sequence (B6HN76 whole entry R201A): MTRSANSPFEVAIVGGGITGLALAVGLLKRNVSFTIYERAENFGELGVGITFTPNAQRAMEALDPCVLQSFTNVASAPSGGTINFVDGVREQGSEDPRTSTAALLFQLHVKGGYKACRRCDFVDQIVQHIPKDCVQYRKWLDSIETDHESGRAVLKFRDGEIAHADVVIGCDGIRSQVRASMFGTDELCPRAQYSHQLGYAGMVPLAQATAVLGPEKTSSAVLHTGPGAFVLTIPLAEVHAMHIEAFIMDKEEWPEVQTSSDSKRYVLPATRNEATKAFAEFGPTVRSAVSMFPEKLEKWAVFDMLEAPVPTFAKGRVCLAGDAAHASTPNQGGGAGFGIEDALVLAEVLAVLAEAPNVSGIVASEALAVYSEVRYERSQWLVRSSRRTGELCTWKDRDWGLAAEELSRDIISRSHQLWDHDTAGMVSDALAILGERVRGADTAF

T1 sequence (B6HN76 whole entry): as the sequence (B6HN76 whole entry R201A) above, with A201R counted along it

Question: How did the catalytic efficiency (SorC [1]) turn out when `NC(=O)C1=CN([C@@H]2O[C@H](COP(=O)(O)OP(=O)(O)OC[C@H]3O[C@@H](n4cnc5c(N)ncnc54)[C@H](OP(=O)(O)O)[C@@H]3O)[C@@H](O)[C@H]2O)C=CC1` [NADPH] was run?
Answer: The catalytic efficiency was “both NADH and NADPH were accepted as coenzymes”.

Question: `NC(=O)C1=CN([C@@H]2O[C@H](COP(=O)(O)OP(=O)(O)OC[C@H]3O[C@@H](n4cnc5c(N)ncnc54)[C@H](O)[C@@H]3O)[C@@H](O)[C@H]2O)C=CC1` [NADH] was tested. Which catalytic efficiency (SorC [1]) did it give?
Answer: The catalytic efficiency was “both NADH and NADPH were accepted as coenzymes, with NADH having a higher overall catalytic efficiency”.

Question: Which “X-ray crystal structure, 1.4 Å” value (SorC [2]) does the source give for `Cc1cc2nc3c(=O)[nH]c(=O)nc-3n(C[C@H](O)[C@H](O)[C@H](O)COP(=O)(O)OP(=O)(O)OC[C@H]3O[C@@H](n4cnc5c(N)ncnc54)[C@H](O)[C@@H]3O)c2cc1C` [FAD] here?
Answer: The value was “SorC without sorbicillin shows that the oxidized flavin is already in the out conformation”.

Question: What about the “X-ray crystal structure, 1.55 Å” value (SorD [3]) of the same molecule?
Answer: Its value is “SorD, where the FAD is covalently attached to residue His78”.

Question: With `C/C=C/C=C/C(=O)c1cc(C)c(O)c(C)c1O` [compound 1, sorbicillin] as the molecule, how does the Kd (SorC [4]) read?
Answer: Its Kd is 940 ± 93 nM.

Question: What about the Kd (SorD [5]) of the same molecule?
Answer: Its Kd is 1200 ± 1600 nM.

Question: What about the Kd (SorC [6]) of the same molecule?
Answer: The Kd was 12600 ± 9700 nM.
